Experimental data reported in PMC10605077, “In Vitro and In Silico Antiviral Activity of Di-Halogenated Compounds Derived from L-Tyrosine against Human Immunodeficiency Virus 1 (HIV-1)” (Current Issues in Molecular Biology, 2023).

Test system: HIV-1 BaL (R5)
Experiment: Anti-HIV activity in infected TZM-bl cells (luciferase), pre- and post-infection treatment
Format: cell-based, Human Immunodeficiency Virus Type 1 (HIV-1)

## COc1c(Cl)cc(C[C@@H](C(=O)O)N(C)C)cc1Cl [TODC-2M]
Human immunodeficiency virus 1, BAL, TZM-bl, 48 h, HIV-1 BaL (R5), TZM-bl cells, luciferase
  IC50: 67.4 µM
Human immunodeficiency virus 1, BAL, 18 µM, TZM-bl cells, read-out: Percentage inhibition of HIV-1 BaL replication
  inhibition at 18 µM: 38%
Human immunodeficiency virus 1, BAL, 37 µM, TZM-bl cells, read-out: Percentage inhibition of HIV-1 BaL replication
  inhibition at 37 µM: 46.4%
Human immunodeficiency virus 1, BAL, 75 µM, TZM-bl cells, read-out: Percentage inhibition of HIV-1 BaL replication
  inhibition at 75 µM: 60.5%
Human immunodeficiency virus 1, BAL, 150 µM, TZM-bl cells, read-out: Percentage inhibition of HIV-1 BaL replication
  inhibition at 150 µM: 61.1%
Selectivity index against HIV-1 BaL (CC50 and IC50 of Table 3)
  SI: >4.45
